Laboratory results taken from patent publication US20250221960A1, “COMPOSITIONS AND METHODS FOR THE TREATMENT OF DEPRESSION” (Janssen Pharmaceuticals, Inc., priority 2022, published 2025).

How the values were obtained:
subjects with MDD = assay: SHAPS total score (anhedonia), Example 1; type: in vivo, human; conditions: for SHAPS Total Score Change from Baseline LSMean (SE), MMRM / SHAPS Total Score Effect Size vs placebo / SHAPS Total Score LSMean Difference (SE) Treatment - Placebo, MMRM: 10 mg
Source text: To assess a potential effect on anhedonia, an anhedonia scale may be used. For example, the Snaith-Hamilton Pleasure Scale (SHAPS) analysis is a validated scale for the measurement of anhedonia. The SHAPS is a subject completed scale in which subjects score whether or not they experience pleasure in performing a list of activities or experiences. The SHAPS is a self-reported 14-item instrument, developed for the assessment of hedonic capacity. Subjects score whether they experience pleasure in performing a list of activities or experiences. Subjects can rate the answers as 1-4 where 1 indicates “Definitely agree”, 2 indicates “Agree”, 3 indicates “Disagree” and 4 indicates “Definitely disagree”. The subject's item responses are summed to provide a total score ranging from 14 to 56. A higher total SHAPS score indicates higher levels of current anhedonia. Physician/clinical judgment can be used to assess anhedonia separately or in conjunction with an anhedonia scale.
In some embodiments, the patient has anhedonia. In some embodiments, the patient has moderate anhedonia. In other embodiments, the patient has severe anhedonia. An assessment of moderate or severe anhedonia is typically determined physician/clinical judgment and/or by one or more tests that provide insight into whether a patient has anhedonia. For example, the severity of the anhedonia may be determined using the SHAPS method. In some embodiments, a patient with moderate or severe anhedonia is considered to have a high level of anhedonia. For example, a patient with a SHAPS score of 38 or greater is considered to have moderate to severe anhedonia that can be considered a high level of anhedonia. In some embodiments, a high level of anhedonia is reflected by a SHAPS score of at least about 40, about 42, about 44, about 46, about 48, about 50, about 52, about 54, about 56, about 58, or higher. A patient with mild or no anhedonia would be considered to have a low level of anhedonia that is assessed by physician/clinical judgment and/or one or more tests. For example, a patient with a SHAPS score of less than 38 is considered to have low anhedonia. In certain embodiments, a patient with mild anhedonia may have a SHAPS score of 20 to less than 38, for example, a SHAPS score of 20 to about 36, about 22 to about 36, about 24 to about 36, about 26 to about 36, about 26 to about 34, about 26 to about 32, about 26 to about 30, about 26 to about 28, about 28 to about 36, about 28 to about 36, about 30, to about 36, about 32 to about 36, about 34 to about 36, about 20 to about 34, about 22 to about 34, about 24 to about 34, about 26 to about 32, about 26 to about 30, about 26 to about 28, about 28 to about 36, about 28 to about 34, about 28 to about 32, about 28 to about 30, about 30 to about 36, about 30 to about 34, about 30 to about 32, about 32 to about 36, about 32 to about 34, or about 34 to about 36. Typically, a SHAPS score of less than 20 can be considered to correspond to normal hedonic functioning, and for purposes of this disclosure, would fall into the low category of anhedonia, e.g., a SHAPS score of less than 38.
iii. To investigate the effect of aticaprant versus placebo on depression related anhedonia as assessed by the SHAPS.
The treatment phase consisted of 3 periods. […] There were 11 scheduled visits, including screening.

[1] = Weight change by treatment group, Example 1; type: in vivo, human
Method: Treatment with aticaprant as described herein has several advantages over the treatments in the art. […] As used herein, the term “weight gain” refers to an increase in the weight of patient, relative to the weight of the patient before taking aticaprant or the weight of the patient that is assessed at the time of the initial administration of the aticaprant. In certain embodiments, the patient may actually see a decrease in overall weight, relative to the weight of the patient before taking aticaprant.
At the lead-in baseline timepoint, the mean weight for subjects in the placebo group was 76.17 kg compared to 78.66 in the aticaprant group. After 6 weeks in the double-blind treatment phase, the mean weight in the placebo group was 75.75 kg compared to 78.57 kg in the aticaprant group. […] This is unexpected because other adjunctive treatments for MDD result in a mean weight increase. See, Thase M, et al. J Clin Psych. 2015: 76 (9), 1224-1231; Thase, J Clin Psych. 2015, 76 (9): 1232-1240; El Khalili, Int J Neuropsychopharmacol. 2010, 13, 917-932; Marcus, J. Clin. Psychopharmacol. […] Nashville, Tenn, ACNP, 2008; Earley, American College of Neuropsychopharmacology, 2007, Annual Meeting Abstracts (Boca Raton, Fla, Dec. 9-13, 2007). Nashville, TN, ACNP, 2007). See, Table 29.

Q: With `Cc1cc(C)cc(C2CCCN2Cc2ccc(Oc3ccc(C(N)=O)cc3F)cc2)c1` (stereo not shown) [aticaprant, 3-fluoro-4-4-2-(3,5-dimethylphenyl) pyrrolidin-1-yl-methylphenoxybenzamide] as the compound, how does the “Frequency of Subjects: High Level of Anhedonia (SHAPS Total Score >= 38)” value (subjects with MDD; Treatment Week 6, eITT, N = 59) read?
A: 8 (13.56%)

Q: What about the “Frequency of Subjects: Low Level of Anhedonia (20 <= SHAPS Total Score < 38)” value (subjects with MDD; Treatment Week 6, eITT, N = 59) of the same compound?
A: 48 (81.36%)

Q: What about the “Frequency of Subjects: No Anhedonia (SHAPS Total Score < 20)” value (subjects with MDD; Treatment Week 6, eITT, N = 59) of the same compound?
A: 3 (5.08%)

Q: What about the “Frequency of Subjects: High Level of Anhedonia (SHAPS Total Score >= 38)” value (subjects with MDD; Treatment Week 6, fITT, N = 77) of the same compound?
A: 8 (10.39%)

Q: What about the “Frequency of Subjects: Low Level of Anhedonia (20 <= SHAPS Total Score < 38)” value (subjects with MDD; Treatment Week 6, fITT, N = 77) of the same compound?
A: 62 (80.52%)

Q: What about the “Frequency of Subjects: No Anhedonia (SHAPS Total Score < 20)” value (subjects with MDD; Treatment Week 6, fITT, N = 77) of the same compound?
A: 7 (9.09%)

Q: And the “SHAPS Total Score Change from Baseline LSMean (SE), MMRM” value (“SHAPS Total Score Change … (SE), MMRM” for short) (subjects with MDD; eITT, Treatment Week 1)?
A: −1.7

Q: And the “SHAPS Total Score Effect Size vs placebo” value (subjects with MDD; eITT, Treatment Week 1)?
A: −0.15

Q: And the “SHAPS Total Score LSMean Difference (SE) Treatment - Placebo, MMRM” value (subjects with MDD; eITT, Treatment Week 1)?
A: −0.8

Q: What about the “SHAPS Total Score Change … (SE), MMRM” value (subjects with MDD; eITT, Treatment Week 3) of the same compound?
A: −3.2

Q: And the “SHAPS Total Score Effect Size vs placebo” value (subjects with MDD; eITT, Treatment Week 3)?
A: −0.25

Q: And the “SHAPS Total Score LSMean Difference (SE) Treatment - Placebo, MMRM” value (subjects with MDD; eITT, Treatment Week 3)?
A: −1.4

Q: And the “SHAPS Total Score Change … (SE), MMRM” value (subjects with MDD; eITT, Treatment Week 4)?
A: −4.3

Q: And the “SHAPS Total Score Effect Size vs placebo” value (subjects with MDD; eITT, Treatment Week 4)?
A: −0.23

Q: And the “SHAPS Total Score LSMean Difference (SE) Treatment - Placebo, MMRM” value (subjects with MDD; eITT, Treatment Week 4)?
A: −1.4

Q: And the “SHAPS Total Score Change … (SE), MMRM” value (subjects with MDD; eITT, Treatment Week 5)?
A: −4.0

Q: What about the “SHAPS Total Score Effect Size vs placebo” value (subjects with MDD; eITT, Treatment Week 5) of the same compound?
A: −0.08

Q: What about the “SHAPS Total Score LSMean Difference (SE) Treatment - Placebo, MMRM” value (subjects with MDD; eITT, Treatment Week 5) of the same compound?
A: −0.5

Q: And the “SHAPS Total Score Change … (SE), MMRM” value (subjects with MDD; eITT, Treatment Week 6)?
A: −4.4

Q: What about the “SHAPS Total Score LSMean Difference (SE) Treatment - Placebo, MMRM” value (subjects with MDD; eITT, Treatment Week 6) of the same compound?
A: −0.7

Q: And the “SHAPS Total Score Change … (SE), MMRM” value (subjects with MDD; fITT, Treatment Week 1)?
A: −1.9

Q: And the “SHAPS Total Score Effect Size vs placebo” value (subjects with MDD; fITT, Treatment Week 1)?
A: −0.15

Q: What about the “SHAPS Total Score LSMean Difference (SE) Treatment - Placebo, MMRM” value (subjects with MDD; fITT, Treatment Week 1) of the same compound?
A: −1.0

Q: And the “SHAPS Total Score Change … (SE), MMRM” value (subjects with MDD; fITT, Treatment Week 3)?
A: −3.1

Q: What about the “SHAPS Total Score Effect Size vs placebo” value (subjects with MDD; fITT, Treatment Week 3) of the same compound?
A: −0.20

Q: What about the “SHAPS Total Score LSMean Difference (SE) Treatment - Placebo, MMRM” value (subjects with MDD; fITT, Treatment Week 3) of the same compound?
A: −1.4

Q: What about the “SHAPS Total Score Change … (SE), MMRM” value (subjects with MDD; fITT, Treatment Week 4) of the same compound?
A: −4.1

Q: What about the “SHAPS Total Score Effect Size vs placebo” value (subjects with MDD; fITT, Treatment Week 4) of the same compound?
A: −0.23

Q: And the “SHAPS Total Score LSMean Difference (SE) Treatment - Placebo, MMRM” value (subjects with MDD; fITT, Treatment Week 4)?
A: −1.6

Q: And the “SHAPS Total Score Change … (SE), MMRM” value (subjects with MDD; fITT, Treatment Week 5)?
A: −4.1

Q: What about the “SHAPS Total Score Effect Size vs placebo” value (subjects with MDD; fITT, Treatment Week 5) of the same compound?
A: −0.09

Q: And the “SHAPS Total Score LSMean Difference (SE) Treatment - Placebo, MMRM” value (subjects with MDD; fITT, Treatment Week 5)?
A: −0.8

Q: What about the “SHAPS Total Score Change … (SE), MMRM” value (subjects with MDD; fITT, Treatment Week 6) of the same compound?
A: −4.5

Q: And the “SHAPS Total Score LSMean Difference (SE) Treatment - Placebo, MMRM” value (subjects with MDD; fITT, Treatment Week 6)?
A: −0.8

Q: What about the “Mean weight: Relative % Change” value ([1]; Withdrawal vs Lead-in, n = 85) of the same compound?
A: −0.11%

Q: What about the “weight over the 6-week double blind treatment period” value ([1]; in vivo) of the same compound?
A: remained relatively stable

Q: And the “Mean weight: Absolute Change (Withdrawal - Lead-in)” value ([1]; n = 85)?
A: -0.09 kg
